From ChEMBL document CHEMBL1127769, “Synthesis of new pyrazolo[4,3-e]1,2,4-triazolo[1,5-c] pyrimidine and 1,2,3-triazolo[4,5-e]1,2,4-triazolo[1,5-c] pyrimidine displaying potent and selective activity as A2a adenosine receptor antagonists” (Bioorg Med Chem Lett, 1994)

What was measured:
[1] = target: T1, Adenosine receptor A2a (Rattus norvegicus, UniProt P30543)
Description: Binding ability of adenosine A2a receptor by using [3H]-CGS- as radioligand in rat striatal homogenate

[2] = target: T2, Adenosine receptor A1 (Rattus norvegicus, UniProt P25099); test: biochemical
T2 sequence (P25099 whole entry): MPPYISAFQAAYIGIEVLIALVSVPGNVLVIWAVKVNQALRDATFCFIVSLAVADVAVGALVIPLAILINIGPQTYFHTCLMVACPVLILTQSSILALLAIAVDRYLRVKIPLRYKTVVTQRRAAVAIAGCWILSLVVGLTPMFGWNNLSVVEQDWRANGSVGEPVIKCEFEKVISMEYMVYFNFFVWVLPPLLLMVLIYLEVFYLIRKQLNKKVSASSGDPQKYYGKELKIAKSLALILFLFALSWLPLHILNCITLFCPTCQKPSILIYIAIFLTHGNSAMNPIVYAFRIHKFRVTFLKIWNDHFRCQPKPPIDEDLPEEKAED
Description: Binding ability of adenosine A1 receptor by using [3H]CHA as radioligand in rat whole brain homogenate

[3] = target: T1, Adenosine receptor A2a; test: Displacement of [3H]-CGS- from Adenosine A2a receptor of rat striatal homogenate

T1 sequence (P30543 whole entry): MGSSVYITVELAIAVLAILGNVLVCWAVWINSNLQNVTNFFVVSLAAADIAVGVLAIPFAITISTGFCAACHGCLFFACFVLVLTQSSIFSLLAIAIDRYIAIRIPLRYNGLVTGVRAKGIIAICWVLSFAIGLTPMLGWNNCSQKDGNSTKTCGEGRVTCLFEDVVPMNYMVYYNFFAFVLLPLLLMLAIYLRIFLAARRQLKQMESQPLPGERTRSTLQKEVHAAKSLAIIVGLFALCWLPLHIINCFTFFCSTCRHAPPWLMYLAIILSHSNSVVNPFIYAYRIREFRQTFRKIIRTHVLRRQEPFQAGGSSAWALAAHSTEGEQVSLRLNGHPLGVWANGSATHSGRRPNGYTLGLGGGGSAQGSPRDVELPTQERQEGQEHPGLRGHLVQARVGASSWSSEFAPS

Row | SMILES | Ki [1] [nM] | Ki [2] [nM] | Ki [3] [nM]
1 | Nc1nc2nn(CCc3ccccc3)cc2c2nc(-c3ccco3)nn12 | 1.4 | 4.7 | 
2 | CCCCn1cc2c(nc(N)n3nc(-c4ccco4)nc23)n1 | 2.4 | 30.4 | 
3 | CCCCn1ncc2c1nc(N)n1nc(-c3ccco3)nc21 | 8.9 | 236 | 
4 | Cn1ncc2c1nc(N)n1nc(-c3ccco3)nc21 | 101 | 651 | 
5 | Nc1nc2nn(Cc3ccc(F)cc3)cc2c2nc(-c3ccco3)nn12 | 1.2 | 3.3 | 
6 | CC(C)CCn1cc2c(nc(N)n3nc(-c4ccco4)nc23)n1 |  | 5.6 | 
7 | Nc1nc2nn(Cc3ccc(F)cc3)nc2c2nc(-c3ccco3)nn12 | 2.5 | 18.3 | 
8 | Nc1nc2c(nnn2Cc2ccccc2)c2nc(-c3ccco3)nn12 | 4.6 | 6.1 | 
9 | Nc1nc2c(nnn2Cc2ccc(F)cc2)c2nc(-c3ccco3)nn12 | 13.7 | 61.2 | 
10 | Nc1nc2c(nnn2Cc2cccc(F)c2)c2nc(-c3ccco3)nn12 | 4.9 | 19 | 
11 | Nc1nc2c(nnn2CCc2ccccc2)c2nc(-c3ccco3)nn12 | 6.9 | 42.4 | 
12 | Nc1nc2c(nnn2Cc2ccccc2F)c2nc(-c3ccco3)nn12 | 10.4 | 13.7 | 
13 | CC(C)CCn1ncc2c1nc(N)n1nc(-c3ccco3)nc21 | 12 | 116 | 
14 | Nc1nc2ccc(Cl)cc2c2nc(-c3ccco3)nn12 [CGS-15943] |  |  | 1.2
